Columns and labels:
A2BR = target: T1, A2BR (Homo sapiens, UniProt P29275); test: Potency on A2BR (no method described); conditions: summary statement
T1 sequence (P29275 1-332): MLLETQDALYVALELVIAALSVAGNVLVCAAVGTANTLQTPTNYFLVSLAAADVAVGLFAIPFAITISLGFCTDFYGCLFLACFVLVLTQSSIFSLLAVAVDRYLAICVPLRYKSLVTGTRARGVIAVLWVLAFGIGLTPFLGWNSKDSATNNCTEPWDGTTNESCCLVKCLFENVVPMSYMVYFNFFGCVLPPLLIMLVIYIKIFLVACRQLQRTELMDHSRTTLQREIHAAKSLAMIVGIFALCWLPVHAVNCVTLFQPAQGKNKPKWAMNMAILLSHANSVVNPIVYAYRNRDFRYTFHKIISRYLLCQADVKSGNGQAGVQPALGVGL

[1] = target: T2, adenosine A2A receptor (A2AR) (Homo sapiens, UniProt P29274); test: A2AR/TREx CHO cAMP functional assay (antagonist mode, NECA EC80); type: cell-based
T2 construct: expressed in transfected cells
T2 sequence (P29274 whole entry): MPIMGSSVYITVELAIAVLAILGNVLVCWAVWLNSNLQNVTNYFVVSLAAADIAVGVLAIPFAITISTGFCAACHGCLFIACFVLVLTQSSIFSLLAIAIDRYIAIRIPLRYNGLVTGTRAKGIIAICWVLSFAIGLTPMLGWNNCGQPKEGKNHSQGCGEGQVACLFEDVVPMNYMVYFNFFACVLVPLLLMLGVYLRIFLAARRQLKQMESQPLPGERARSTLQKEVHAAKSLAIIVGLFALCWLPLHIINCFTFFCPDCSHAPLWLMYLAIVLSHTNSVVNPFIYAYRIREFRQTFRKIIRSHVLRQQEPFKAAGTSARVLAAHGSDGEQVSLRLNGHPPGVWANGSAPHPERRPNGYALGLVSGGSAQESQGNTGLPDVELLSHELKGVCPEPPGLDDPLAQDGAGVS
Description: Functional assays may also be employed to assess the compounds of the present invention. The cAMP assay described in detail below was used to evaluate certain compounds described herein.
Measurement of the Adenosine Receptor Activity of Compound I Using a A2AR/TREx CHO cAMP Functional Assay
Dose response of NECA (5-N-ethylcarboxamidoadenosine), a non-selective adenosine receptor agonist, was performed daily to determine the EC80 of NECA used in the cAMP functional assay. 1000-2500 cells/well of stably expressed A2AR TRex CHO cells were seeded to the 384-well Opti plate (Perkin Elmer) followed by incubating NECA at varies concentrations (ranging from 10 μM to 0 μM) at 37° C. for 30 min. […] FRET signal was detected with Envision multilabel plate reader (Perkin Elmer) when Eu-cAMP tracer excitation at 615 nm and emission at 665 nm. […]
The cAMP antagonist functional assay (Perkin Elmer) was performed on A2AR TRex CHO stable cell lines. […] FRET signal was detected when Eu-cAMP tracer excitation at 615 nm and emission at 665 nm. […]
Particular compounds were evaluated for adenosine A2A receptor activity as described for the cAMP assay above. […]

potency on A2BR (antagonist) (A2BR): less than 10 nM
Kb [1]: < 10 nM
potency on A2AR (antagonist) ([1]; summary statement): less than 10 nM
Compound: Cc1c(C#N)cccc1-c1cc(-c2cn(Cc3cccc(C(C)(C)O)n3)nn2)nc(N)n1 [Compound I, 3-[2-amino-6-(1-{[6-(2-hydroxypropan-2-yl)pyridin-2-yl]methyl}-1H-1,2,3-triazol-4-yl)pyrimidin-4-yl]-2-methylbenzonitrile]

From US12195447B2, “Azolopyrimidine for the treatment of cancer-related disorders” (ARCUS BIOSCIENCES, INC., priority 2017, dated 2025)
